Test results from ChEMBL document CHEMBL1255357, “Enrichment of fluoroquinolone-resistant Staphylococcus aureus: oscillating ciprofloxacin concentrations simulated at the upper and lower portions of the mutant selection window” (Antimicrob Agents Chemother, 2008).
Calls of active or inactive are those of the source. No cut-off for these calls is given here.

Legend:
[1] = tested on: Staphylococcus aureus; test: Antimicrobial activity against methicillin-resistant Staphylococcus aureus ATCC 43300 assessed as mutant prevention concentration after 48 hrs; type: functional, organism-based
[2] = tested on: Staphylococcus aureus; test: Antimicrobial activity against methicillin-resistant Staphylococcus aureus ATCC 6538 assessed as mutant prevention concentration after 48 hrs; type: functional, organism-based

O=C(O)c1cn(C2CC2)c2cc(N3CCNCC3)c(F)cc2c1=O was tested, and the Activity [1] was “Active” and the Activity [2] was “Active”.
